Assay results from US5691373A, “Nonpeptide endothelin antagonists I” (Warner-Lambert Company, priority 1995, dated 1997).
Structures can show the parent of a compound that is named as a salt. Where two headings read alike, the source gives them in different places.

Legend:
ETA = target: T1, ETA (Oryctolagus cuniculus, UniProt A5A8K3)
T1 sequence (A5A8K3 21-427): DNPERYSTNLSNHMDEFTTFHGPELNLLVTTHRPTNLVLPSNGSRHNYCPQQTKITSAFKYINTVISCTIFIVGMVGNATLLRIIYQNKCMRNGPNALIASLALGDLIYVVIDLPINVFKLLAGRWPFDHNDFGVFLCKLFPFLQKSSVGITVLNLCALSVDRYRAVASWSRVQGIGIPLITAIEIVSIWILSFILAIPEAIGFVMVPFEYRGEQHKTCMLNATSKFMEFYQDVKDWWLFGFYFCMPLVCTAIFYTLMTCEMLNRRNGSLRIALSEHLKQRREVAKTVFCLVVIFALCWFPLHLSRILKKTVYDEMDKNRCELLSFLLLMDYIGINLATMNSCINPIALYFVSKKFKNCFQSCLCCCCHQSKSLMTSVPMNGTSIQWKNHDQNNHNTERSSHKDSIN
Procedure: The cells used were rabbit renal artery vascular smooth muscle cells grown in a 48-well dish (1 cm^2) (confluent cells).
The growth media was Dulbecco's Modified Eagles/Ham's F12 which contained 10% fetal bovine serum and antibiotics (penicillin/streptomycin/fungizone).
Second, remove the assay buffers, place the dish on ice, and add 150 μL of cold assay buffer described above to each well. […] Next, place dish in a 37° C., water bath for about 2 hours and gently agitate the dish every 15 minutes. Discard the radioactive incubation mixture in the sink and wash wells 3 times with 1 mL of cold phosphate buffered saline.

human ETB receptor = target: T2, human ETB receptor (Homo sapiens, UniProt P24530); assay: ERBA-B: [125I]-ET-1 binding, recombinant human ETB receptor expressed in CHO-K1 cells; conditions: human cloned ETB receptor, read-out: ERBA-B IC50, human cloned receptor data
T2 construct: expressed in transfected cells; host or cells: CHO-K1 cells, pRc-CMW (so in the source) expression vector, electroporation; membranes used
T2 sequence (P24530 27-442): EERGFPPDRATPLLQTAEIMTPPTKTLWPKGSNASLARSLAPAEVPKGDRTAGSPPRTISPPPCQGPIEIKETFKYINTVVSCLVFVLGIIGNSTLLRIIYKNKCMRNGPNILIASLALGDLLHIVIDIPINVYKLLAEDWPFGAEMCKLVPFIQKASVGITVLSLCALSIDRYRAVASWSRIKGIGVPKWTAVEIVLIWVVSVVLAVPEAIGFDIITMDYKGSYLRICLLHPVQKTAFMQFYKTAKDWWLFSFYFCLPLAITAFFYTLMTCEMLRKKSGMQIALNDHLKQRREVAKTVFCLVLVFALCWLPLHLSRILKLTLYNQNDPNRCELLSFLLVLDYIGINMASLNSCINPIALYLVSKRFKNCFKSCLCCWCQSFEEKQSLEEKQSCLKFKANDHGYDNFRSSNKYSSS
Procedure: Count filters for radioactivity in gamma counter.
The above process has also been modified by using human recombinant CHO-K1 cells.
The tissue used for human ETB was recombinant human ETB receptor expressed in CHO-K1 cells (chinese hamster ovary cells). The gene for human ETB receptor was cloned and inserted into the pRc-CMW expression vector, then transfected into CHO-K1 cells by electroporation. For binding assays, membranes (0.7 mg protein) of CHO-K1 cells expressing recombinant human ETB receptor were used.
^d Human cloned receptor data

[1] = ERBA-A IC50, [125I]-ET-1, rabbit renal artery vascular smooth muscle cells

Structure (SMILES) | IC50 (ETA; [1]) [nM] | IC50 (human ETB receptor) [nM] | IC50 (ETA; read-out: ERBA-A IC50, [125I]-ET-1, rabbit renal artery vascular smooth muscle cells) [nM]
COc1ccc(CC2=C(c3ccc(N(C)C)cc3)C(=O)OC2(O)c2ccc(Cl)cc2)cc1OC (racemic) [Example 56, 2(5H)-Furanone, 5-(4-chlorophenyl)-4-[(3,4-dimethoxyphenyl)methyl]-3-[4-(dimethylamino)phenyl]-5-hydroxy-, (±)-] | 14000 | – | –
CC(C)c1ccc(CC2=C(c3ccc(N(C)C)cc3)C(=O)OC2(O)c2ccc(Cl)cc2)cc1 (racemic) [Example 57, 2(5H)-Furanone, 5-(4-chlorophenyl)-3-[(4-(dimethylamino)phenyl]-5-hydroxy-4-[[4-(1-methylethyl)phenyl]methyl]-, (±)-] | 11000 | – | –
COc1ccc(C2(O)OC(=O)C(c3ccc4c(c3)OCO4)=C2Cc2ccc(C(=O)NCCN3CCOCC3)cc2)cc1 (racemic) [Example 350, Benzamide, 4-[4-(1,3-benzodioxol-5-yl)-2,5-dihydro-2-hydroxy-2-(4-methoxyphenyl)-5-oxo-3-furanyl]methyl]-N-[2-(4-morpholinyl)ethyl]-, monohydrochloride, (±)-] | – | > 2500 | 290
COc1ccc(C2(O)OC(=O)C(c3ccc4c(c3)OCO4)=C2Cc2ccc(OCc3ccccc3)cc2)cc1 (stereo not shown) [Example 86, 3-Benzo[1,3]dioxol-5-yl-4-(4-benzyloxybenzyl)-5-hydroxy-5-(4-methoxyphenyl) -5H-furan-2-one] | 310 | – | –
CCC1=C(c2ccc3c(c2)OCO3)C(=O)OC1(O)c1ccc(OC)cc1 (stereo not shown) [Example 91, 3-Benzo[1,3]dioxol-5-yl-4-ethyl-5-hydroxy-5-(4-methoxyphenyl)-5H-furan-2-on] | 530 | 15000 | –
COc1ccc(C2(O)OC(=O)C(c3ccc(OC)cc3OC)=C2Cc2ccccc2)cc1 (stereo not shown) [Example 113, 4-Benzyl-3-(2,4-dimethoxyphenyl)-5-hydroxy-5-(4-mehoxyphenyl)-5H-furan-2-one] | 300 | 25000 | –
COc1ccc(CC2=C(c3ccc(Cl)c(Cl)c3)C(=O)OC2(O)c2ccc(OC)cc2)cc1 (stereo not shown) [Example 117, 3-(3,4-Dichlorophenyl)-5-hydroxy-4-(4-methoxybenzyl)-5-(4-methoxyphenyl)-5H -furan-2-one] | 310 | 2700 | –
COc1ccc(C2(O)OC(=O)C(c3ccc(Cl)c(Cl)c3)=C2Cc2ccccc2)cc1 (stereo not shown) [Example 120, 4-Benzyl-3-(3,4-dichlorophenyl)-5-hydroxy-5-(4-methoxyphenyl)-5H-furan-2-one] | 850 | – | –
COc1ccc(C2(O)OC(=O)C(c3ccc(F)c(F)c3)=C2Cc2ccccc2)cc1 (stereo not shown) [Example 143, 4-Benzyl-3-(3,4-difluorophenyl)-5-hydroxy-5-(4-methoxyphenyl)-5H-furan-2-one] | 1900 | – | –
COc1ccc(C2(O)OC(=O)C(c3ccc(F)c(F)c3)=C2Cc2ccc(N(C)C)cc2)cc1 (stereo not shown) [Example 145, 3-(3,4-Difluorophenyl)-4-(4-dimethylaminobenzyl)-5-hydroxy-5-(4-methoxyphenyl)-5H-furan-2-one] | 1700 | – | –
COc1ccc(C2(O)OC(=O)C(c3cc(Cl)cc(Cl)c3)=C2Cc2ccccc2)cc1 (stereo not shown) [Example 149, 4-Benzyl-3-(3,5-dichloro-phenyl)-5-hydroxy-5-(4-methoxy-phenyl)-5H-furan-2-one] | 600 | – | –
COC(=O)c1ccc(C2(O)OC(=O)C(c3ccc4c(c3)OCO4)=C2Cc2ccccc2)cc1 (stereo not shown) [Example 198, 4-(4-Benzo[1,3]dioxol-5-yl-3-benzyl-2-hydroxy-5-oxo-2,5-dihydrofuran-2-yl)b enzoic acid methyl ester] | 410 | – | –
Cc1ccc(C2(O)OC(=O)C(c3ccc4c(c3)OCO4)=C2Cc2ccccc2)cc1C (stereo not shown) [Example 212, 3-Benzo[1,3]dioxol-5-yl-4-benzyl-5-(3,4-dimethylphenyl)-5-hydroxy-5H-furan-2-one] | 1300 | – | –
COc1ccccc1C1(O)OC(=O)C(c2ccc3c(c2)OCO3)=C1Cc1ccccc1 (stereo not shown) [Example 249, 3-Benzo[1,3]dioxol-5-yl-4-benzyl-5-hydroxy-5-(2-methoxyphenyl)-5H-furan-2-one] | 500 | – | –
CCc1ccc(C2(O)OC(=O)C(c3ccc4c(c3)OCO4)=C2Cc2ccccc2)cc1 (stereo not shown) [Example 266, 3-Benzo[1,3]dioxol-5-yl-4-benzyl-5-(4-ethylphenyl)-5-hydroxy-5H-furan-2-one] | 600 | – | –
CSc1ccc(C2(O)OC(=O)C(c3ccc4c(c3)OCO4)=C2Cc2ccccc2)cc1 (stereo not shown) [Example 271, 3-Benzo[1,3]dioxol-5-yl-4-benzyl-5-hydroxy-5-(4-methylsulfanylphenyl)-5H-fu ran-2-one] | 390 | – | –
COc1ccc(C(=O)/C(Cc2cc(OC)c(OC)c(OC)c2)=C(\C(=O)O)c2cc(OC)c3c(c2)OCO3)cc1C [Example 369, Sodium 2-(7-Methoxy-benzo[1,3]dioxol-5-yl)-3-(4-methoxy-3-methyl-benzoyl)-4-(3,4,5-trimethoxyphenyl)-but-2-enoate] | – | 328 | –

More lines, in order of falling IC50 (ETA; [1]), values ahead:

IC50 (ETA; [1]) [nM] | IC50 (human ETB receptor) [nM] | IC50 (ETA; read-out: ERBA-A IC50, [125I]-ET-1, rabbit renal artery vascular smooth muscle cells) [nM] | Structure (SMILES)
290 | – | – | COc1ccc(C2(O)OC(=O)C(c3ccc(F)c(F)c3)=C2Cc2ccc(C(C)C)cc2)cc1 (stereo not shown) [Example 144, 3-(3,4-Difluorophenyl)-5-hydroxy-4-(4-isopropylbenzyl)-5-(4-methoxyphenyl)-5H-furan-2-one]
250 | – | – | COc1ccc(C2(O)OC(=O)C(c3ccc4c(c3)OCO4)=C2Cc2ccc(C(F)(F)F)cc2)cc1 (stereo not shown) [Example 88, 3-Benzo[1,3]dioxol-5-yl-5-hydroxy-5-(4-methoxyphenyl)-4-(4-trifluoromethylbenzyl)-5H-furan-2-one]
83 | – | – | COc1ccc(C2(O)OC(=O)C(c3ccc4c(c3)OCO4)=C2Cc2cccc(C(=O)O)c2)cc1 (stereo not shown) [Example 292, 3-[4-Benzo[1,3]dioxol-5-yl-2-hydroxy-2-(4-methoxyphenyl)-5-oxo-2,5-dihydro-furan-3-ylmethyl]-benzoic acid]
74 | – | – | COc1ccc(C2(O)OC(=O)C(c3ccc(Cl)c(Cl)c3)=C2Cc2ccc(C(C)C)cc2)cc1 (stereo not shown) [Example 121, 3-(3,4-Dichlorophenyl)-5-hydroxy-4-(4-isopropylbenzyl)-5-(4-methoxyphenyl)-5H-furan-2-one]
63 | 1500 | – | COc1ccc(C2(O)OC(=O)C(c3ccc4c(c3)OCO4)=C2Cc2ccc3c(c2)OCO3)cc1 (stereo not shown) [Example 87, 3-Benzo[1,3]dioxol-5-yl-4-benzo[1,3]dioxol-5-ylmethyl-5-hydroxy-5-(4-methoxyphenyl)-5H-furan-2-one]
50 | 4000 | – | COc1ccc(C2(O)OC(=O)C(c3ccc4c(c3)OCO4)=C2Cc2cncc3ccccc23)cc1 (racemic) [Example 164, monohydrochloride]
40 | 25000 | – | COc1ccc(C2(O)OC(=O)C(c3ccc4c(c3)OCO4)=C2Cc2cccnc2)cc1 (racemic) [Example 165, 2(5H)-Furanone, 3-(1,3-benzodioxol-5-yl)-5-hydroxy-5-(4-methoxyphenyl)-4-(3-pyridinylmethyl)-, (±)-, monohydrochloride]
40 | > 2500 | – | COc1ccc(C2(O)OC(=O)C(c3cc(OC)cc(OC)c3)=C2Cc2cccnc2)cc1 (racemic) [Example 166, 2(5H)-Furanone, 3-(3,5-dimethoxyphenyl)-5-hydroxy-5-(4-methoxyphenyl)-4-(3-pyridinylmethyl)-, (±)-, monohydrochloride]
33 | – | – | COc1ccc(C2(O)OC(=O)C(c3ccc4c(c3)OCO4)=C2Cc2ccc(OC)c(OC)c2OC)cc1 (stereo not shown) [Example 305, 3-Benzo[1,3]dioxol-5-yl-5-hydroxy-5-(4-methoxy-phenyl)-4-(2,3,4-trimethoxy-benzyl)-5H-furan-2-one]
13 | – | – | COc1ccc(C2(O)OC(=O)C(c3ccc4c(c3)OCO4)=C2Cc2cccc3ccccc23)cc1 (stereo not shown) [Example 250, 3-Benzo[1,3]dioxol-5-yl-5-hydroxy-5-(4-methoxyphenyl)-4-naphthalen-1-ylmethyl-5H-furan-2-one]
12 | – | – | COc1ccc(C2(O)OC(=O)C(c3ccc4c(c3)OCO4)=C2Cc2ccccc2)cc1C (racemic) [Example 290, 2(5H)-Furanone, 3-(1,3-benzodioxol-5-yl)-5hydroxy-5-(4-methoxy-3-methylphenyl)-4-(phenylmethyl)-, (±)-]
12 | – | – | COc1ccc(C2(O)OC(=O)C(c3cc(OC)cc(OC)c3)=C2CC2CCCCC2)cc1 (stereo not shown) [Example 275, 2(5H)-Furanone, 4-(cyclohexylmethyl)-3-(3,5-dimethoxyphenyl)-5-hydroxy-5-(4-methoxyphenyl)]
